Measurements taken from ChEMBL document CHEMBL5649169 (ChemMedChem, 2018).

Key:
Ephrin type-A receptor 5 = Ephrin type-A receptor 5 (Homo sapiens, UniProt P54756); test: Inhibition of Nano Luc-fused full length C-terminal EPHA5 (unknown origin) expressed in HEK293T cells using NanoGlo as substrate incubated for 2 hrs in presence of tracer by NanoBRET assay; assay type: cell-based
[1] = molecular target: Activin receptor type-1B (Homo sapiens) (UniProt P36896); also: assay method not described here
[2] = molecular target: Alkyldihydroxyacetonephosphate synthase, peroxisomal (Homo sapiens) (UniProt O00116); also: assay method not described here
Homo sapiens [3] = species on record: Homo sapiens; also: assay method not described here
[4] = molecular target: AP-3 complex subunit beta-1 (Homo sapiens) (UniProt O00203); also: assay method not described here
[5] = molecular target: Calpain-1 catalytic subunit (Homo sapiens) (UniProt P07384); also: assay method not described here
[6] = molecular target: CDP-diacylglycerol--inositol 3-phosphatidyltransferase (Homo sapiens) (UniProt O14735); also: assay method not described here
[7] = molecular target: Cyclin-dependent kinase 1 (Homo sapiens) (UniProt P06493); also: assay method not described here
[8] = molecular target: Conserved oligomeric Golgi complex subunit 1 (Homo sapiens) (UniProt Q8WTW3); also: assay method not described here
[9] = molecular target: Coatomer subunit gamma-2 (Homo sapiens) (UniProt Q9UBF2); also: assay method not described here
[10] = molecular target: Eukaryotic translation initiation factor 3 subunit L (Homo sapiens) (UniProt Q9Y262); also: assay method not described here
[11] = molecular target: Cathepsin D (Homo sapiens) (UniProt P07339); also: assay method not described here
[12] = molecular target: Epithelial discoidin domain-containing receptor 1 (Homo sapiens) (UniProt Q08345); also: assay method not described here
Emerin (Homo sapiens) = Emerin (Homo sapiens) (UniProt P50402); also: assay method not described here
[13] = molecular target: Serine/threonine-protein kinase/endoribonuclease IRE1 (Homo sapiens) (UniProt O75460); also: assay method not described here
[14] = molecular target: Glyceraldehyde-3-phosphate dehydrogenase (Homo sapiens) (UniProt P04406); also: assay method not described here
[15] = molecular target: Golgi apparatus protein 1 (Homo sapiens) (UniProt Q92896); also: assay method not described here
Homo sapiens [16] = species on record: Homo sapiens; remark: listed apart in the source; also: assay method not described here
[17] = molecular target: Interleukin enhancer-binding factor 3 (Homo sapiens) (UniProt Q12906); also: assay method not described here
[18] = molecular target: Importin-8 (Homo sapiens) (UniProt O15397); also: assay method not described here
[19] = molecular target: Dolichyl-diphosphooligosaccharide--protein glycosyltransferase subunit KCP2 (Homo sapiens) (UniProt Q8N6L1); also: assay method not described here
[20] = molecular target: Leucine--tRNA ligase, cytoplasmic (Homo sapiens) (UniProt Q9P2J5); also: assay method not described here
[21] = molecular target: Dual specificity mitogen-activated protein kinase kinase 1 (Homo sapiens) (UniProt Q02750); also: assay method not described here
[22] = molecular target: Mitogen-activated protein kinase 3 (Homo sapiens) (UniProt P27361); also: assay method not described here
[23] = molecular target: Mitogen-activated protein kinase 8 (Homo sapiens) (UniProt P45983); also: assay method not described here
[24] = molecular target: mRNA turnover protein 4 homolog (Homo sapiens) (UniProt Q9UKD2); also: assay method not described here
[25] = molecular target: RNA cytidine acetyltransferase (Homo sapiens) (UniProt Q9H0A0); also: assay method not described here
[26] = molecular target: Serine/threonine-protein kinase Nek7 (Homo sapiens) (UniProt Q8TDX7); also: assay method not described here
[27] = molecular target: ADP-sugar pyrophosphatase (Homo sapiens) (UniProt Q9UKK9); also: assay method not described here
[28] = molecular target: Programmed cell death protein 6 (Homo sapiens) (UniProt O75340); also: assay method not described here
[29] = molecular target: Protein disulfide-isomerase A3 (Homo sapiens) (UniProt P30101); also: assay method not described here
[30] = molecular target: POTE ankyrin domain family member E (Homo sapiens) (UniProt Q6S8J3); also: assay method not described here
[31] = molecular target: Serine/threonine-protein kinase D2 (Homo sapiens) (UniProt Q9BZL6); also: assay method not described here
[32] = molecular target: Pre-mRNA-processing-splicing factor 8 (Homo sapiens) (UniProt Q6P2Q9); also: assay method not described here
Homo sapiens [33] = species on record: Homo sapiens; remark: listed apart in the source; also: assay method not described here
[34] = molecular target: Large ribosomal subunit protein eL13 (Homo sapiens) (UniProt P26373); also: assay method not described here
[35] = molecular target: Large ribosomal subunit protein eL20 (Homo sapiens) (UniProt Q02543); also: assay method not described here
[36] = molecular target: Large ribosomal subunit protein uL30 (Homo sapiens) (UniProt P18124); also: assay method not described here
[37] = molecular target: Small ribosomal subunit protein eS7 (Homo sapiens) (UniProt P62081); also: assay method not described here
[38] = molecular target: Ribonucleoside-diphosphate reductase large subunit (Homo sapiens) (UniProt P23921); also: assay method not described here
[39] = molecular target: Serine hydroxymethyltransferase, mitochondrial (Homo sapiens) (UniProt P34897); also: assay method not described here
[40] = molecular target: Adenosine 3'-phospho 5'-phosphosulfate transporter 1 (Homo sapiens) (UniProt Q8TB61); also: assay method not described here
[41] = molecular target: Structural maintenance of chromosomes protein 3 (Homo sapiens) (UniProt Q9UQE7); also: assay method not described here
[42] = molecular target: DNA topoisomerase 2-alpha (Homo sapiens) (UniProt P11388); also: assay method not described here
[43] = molecular target: DNA topoisomerase 2-beta (Homo sapiens) (UniProt Q02880); also: assay method not described here
[44] = molecular target: ATP synthase F(0) complex subunit k, mitochondrial (Homo sapiens) (UniProt Q96IX5); also: assay method not described here
[45] = molecular target: 14-3-3 protein epsilon (Homo sapiens) (UniProt P62258); also: assay method not described here
Chain of 14-3-3 protein epsilon (Homo sapiens) (P62258 whole entry): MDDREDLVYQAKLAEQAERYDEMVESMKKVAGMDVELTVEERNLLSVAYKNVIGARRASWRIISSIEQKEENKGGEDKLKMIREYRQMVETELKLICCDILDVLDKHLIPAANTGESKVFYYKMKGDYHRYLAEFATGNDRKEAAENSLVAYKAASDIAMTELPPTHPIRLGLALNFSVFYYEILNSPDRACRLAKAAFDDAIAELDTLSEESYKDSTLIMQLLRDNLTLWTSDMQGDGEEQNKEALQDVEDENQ

Chain of Serine/threonine-protein kinase Nek7 (Homo sapiens) (Q8TDX7 whole entry, looked up): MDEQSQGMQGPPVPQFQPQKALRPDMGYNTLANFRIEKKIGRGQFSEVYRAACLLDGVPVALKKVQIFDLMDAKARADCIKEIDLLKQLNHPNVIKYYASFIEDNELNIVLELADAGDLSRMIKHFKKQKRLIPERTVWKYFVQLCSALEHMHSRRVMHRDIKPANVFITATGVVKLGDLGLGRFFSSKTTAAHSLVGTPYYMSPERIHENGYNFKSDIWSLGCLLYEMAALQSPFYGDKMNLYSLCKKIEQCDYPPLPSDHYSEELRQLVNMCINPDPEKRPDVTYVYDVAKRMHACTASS
Chain of RNA cytidine acetyltransferase (Homo sapiens) (Q9H0A0 whole entry): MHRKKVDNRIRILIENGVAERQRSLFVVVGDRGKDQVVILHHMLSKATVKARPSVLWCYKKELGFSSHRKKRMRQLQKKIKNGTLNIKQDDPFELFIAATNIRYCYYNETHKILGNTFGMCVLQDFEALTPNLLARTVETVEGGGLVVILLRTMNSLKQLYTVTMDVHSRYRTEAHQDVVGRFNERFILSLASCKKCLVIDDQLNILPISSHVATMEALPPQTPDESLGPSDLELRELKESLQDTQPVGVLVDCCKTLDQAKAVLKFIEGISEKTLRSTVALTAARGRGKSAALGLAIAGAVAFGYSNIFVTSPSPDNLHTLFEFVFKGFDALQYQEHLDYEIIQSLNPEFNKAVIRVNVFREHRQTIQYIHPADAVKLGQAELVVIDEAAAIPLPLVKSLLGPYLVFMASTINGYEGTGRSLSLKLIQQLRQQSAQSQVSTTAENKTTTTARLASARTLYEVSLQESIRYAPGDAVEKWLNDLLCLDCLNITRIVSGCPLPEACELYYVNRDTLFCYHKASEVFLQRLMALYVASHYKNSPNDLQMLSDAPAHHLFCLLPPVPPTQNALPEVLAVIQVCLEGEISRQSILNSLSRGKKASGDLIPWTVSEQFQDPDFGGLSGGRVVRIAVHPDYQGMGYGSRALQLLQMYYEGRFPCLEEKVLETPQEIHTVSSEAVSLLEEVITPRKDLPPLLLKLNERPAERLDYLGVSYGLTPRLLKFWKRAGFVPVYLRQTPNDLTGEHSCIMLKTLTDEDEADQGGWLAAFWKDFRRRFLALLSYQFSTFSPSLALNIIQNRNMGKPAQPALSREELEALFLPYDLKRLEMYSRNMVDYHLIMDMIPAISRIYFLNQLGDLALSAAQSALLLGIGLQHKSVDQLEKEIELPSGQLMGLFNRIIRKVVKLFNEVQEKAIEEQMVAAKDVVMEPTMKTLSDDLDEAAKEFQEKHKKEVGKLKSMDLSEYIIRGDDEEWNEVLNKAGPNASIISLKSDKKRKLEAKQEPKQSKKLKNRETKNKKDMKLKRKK
Chain of Mitogen-activated protein kinase 8 (Homo sapiens) (P45983 whole entry): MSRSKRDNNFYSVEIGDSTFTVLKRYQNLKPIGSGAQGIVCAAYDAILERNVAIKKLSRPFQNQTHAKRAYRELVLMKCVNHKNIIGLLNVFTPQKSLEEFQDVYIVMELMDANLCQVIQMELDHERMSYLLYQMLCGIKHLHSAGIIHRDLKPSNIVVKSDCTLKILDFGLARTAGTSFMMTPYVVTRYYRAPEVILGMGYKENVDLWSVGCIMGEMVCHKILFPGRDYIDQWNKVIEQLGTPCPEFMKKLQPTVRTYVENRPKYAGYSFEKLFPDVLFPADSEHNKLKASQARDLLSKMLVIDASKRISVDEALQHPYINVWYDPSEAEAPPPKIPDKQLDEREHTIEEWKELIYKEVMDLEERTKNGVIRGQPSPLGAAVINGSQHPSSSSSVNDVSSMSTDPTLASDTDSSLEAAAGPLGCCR
Chain of Ribonucleoside-diphosphate reductase large subunit (Homo sapiens) (P23921 whole entry): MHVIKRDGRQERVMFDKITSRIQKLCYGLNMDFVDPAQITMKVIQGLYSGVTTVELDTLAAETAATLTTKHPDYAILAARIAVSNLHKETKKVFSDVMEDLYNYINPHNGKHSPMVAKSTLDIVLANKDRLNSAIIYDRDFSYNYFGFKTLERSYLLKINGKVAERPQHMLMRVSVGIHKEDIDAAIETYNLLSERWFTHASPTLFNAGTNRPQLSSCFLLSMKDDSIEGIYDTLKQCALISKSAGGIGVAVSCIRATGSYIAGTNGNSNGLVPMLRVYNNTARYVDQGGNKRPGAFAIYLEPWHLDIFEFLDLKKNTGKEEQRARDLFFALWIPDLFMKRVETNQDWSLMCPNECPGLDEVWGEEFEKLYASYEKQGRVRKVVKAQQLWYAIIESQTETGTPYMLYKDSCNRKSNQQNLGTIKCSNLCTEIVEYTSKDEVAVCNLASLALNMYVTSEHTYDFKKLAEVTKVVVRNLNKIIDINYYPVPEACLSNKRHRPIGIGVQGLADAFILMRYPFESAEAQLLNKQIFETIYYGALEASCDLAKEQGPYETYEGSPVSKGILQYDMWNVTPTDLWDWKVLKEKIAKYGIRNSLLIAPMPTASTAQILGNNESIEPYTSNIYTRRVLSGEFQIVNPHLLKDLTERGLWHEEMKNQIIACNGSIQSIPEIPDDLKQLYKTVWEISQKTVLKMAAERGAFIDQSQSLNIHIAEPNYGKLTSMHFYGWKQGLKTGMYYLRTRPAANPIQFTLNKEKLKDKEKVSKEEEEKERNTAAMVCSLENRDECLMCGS
Chain of Golgi apparatus protein 1 (Homo sapiens) (Q92896 whole entry): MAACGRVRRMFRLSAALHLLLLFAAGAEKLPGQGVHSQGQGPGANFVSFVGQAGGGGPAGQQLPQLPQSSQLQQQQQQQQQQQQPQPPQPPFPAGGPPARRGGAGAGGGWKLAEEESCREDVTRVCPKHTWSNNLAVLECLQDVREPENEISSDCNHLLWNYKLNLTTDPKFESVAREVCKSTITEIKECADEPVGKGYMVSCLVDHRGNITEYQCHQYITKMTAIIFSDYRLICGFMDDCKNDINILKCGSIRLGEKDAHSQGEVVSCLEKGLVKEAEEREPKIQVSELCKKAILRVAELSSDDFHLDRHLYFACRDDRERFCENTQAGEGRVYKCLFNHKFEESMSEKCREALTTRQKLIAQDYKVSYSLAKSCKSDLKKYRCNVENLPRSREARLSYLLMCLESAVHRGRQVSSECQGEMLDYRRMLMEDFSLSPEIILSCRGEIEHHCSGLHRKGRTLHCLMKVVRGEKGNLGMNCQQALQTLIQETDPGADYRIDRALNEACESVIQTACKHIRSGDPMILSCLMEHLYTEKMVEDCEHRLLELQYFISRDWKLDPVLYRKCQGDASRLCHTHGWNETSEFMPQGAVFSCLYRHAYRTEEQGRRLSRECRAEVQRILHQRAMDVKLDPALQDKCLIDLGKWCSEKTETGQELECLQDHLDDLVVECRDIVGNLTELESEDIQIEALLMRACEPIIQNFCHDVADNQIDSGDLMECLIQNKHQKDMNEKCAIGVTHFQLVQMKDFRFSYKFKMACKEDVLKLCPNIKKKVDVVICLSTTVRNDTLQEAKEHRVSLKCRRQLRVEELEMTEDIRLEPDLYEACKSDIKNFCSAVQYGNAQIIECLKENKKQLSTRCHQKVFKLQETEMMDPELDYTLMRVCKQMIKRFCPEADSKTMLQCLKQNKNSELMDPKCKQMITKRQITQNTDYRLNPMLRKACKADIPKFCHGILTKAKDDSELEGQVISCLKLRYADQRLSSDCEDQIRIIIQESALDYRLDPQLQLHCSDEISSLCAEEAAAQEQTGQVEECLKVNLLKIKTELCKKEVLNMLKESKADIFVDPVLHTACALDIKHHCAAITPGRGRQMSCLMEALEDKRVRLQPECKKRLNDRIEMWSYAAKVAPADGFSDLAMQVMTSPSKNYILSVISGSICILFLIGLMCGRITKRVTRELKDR
Chain of Protein disulfide-isomerase A3 (Homo sapiens) (P30101 whole entry, the tested form may be a part): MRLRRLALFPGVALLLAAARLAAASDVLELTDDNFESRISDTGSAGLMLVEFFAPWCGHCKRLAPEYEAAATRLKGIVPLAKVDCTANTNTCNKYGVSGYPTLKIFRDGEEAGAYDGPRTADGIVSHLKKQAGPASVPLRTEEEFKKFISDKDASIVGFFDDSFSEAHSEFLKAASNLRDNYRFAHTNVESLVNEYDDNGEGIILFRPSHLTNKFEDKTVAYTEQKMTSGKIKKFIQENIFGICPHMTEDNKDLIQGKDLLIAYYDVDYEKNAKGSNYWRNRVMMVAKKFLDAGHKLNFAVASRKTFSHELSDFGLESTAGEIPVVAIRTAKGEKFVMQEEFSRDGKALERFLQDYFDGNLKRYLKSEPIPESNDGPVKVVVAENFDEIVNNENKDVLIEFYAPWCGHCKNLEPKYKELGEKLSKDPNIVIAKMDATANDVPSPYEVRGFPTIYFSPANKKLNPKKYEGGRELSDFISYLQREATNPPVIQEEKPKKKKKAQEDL
Chain of CDP-diacylglycerol--inositol 3-phosphatidyltransferase (Homo sapiens) (O14735 whole entry): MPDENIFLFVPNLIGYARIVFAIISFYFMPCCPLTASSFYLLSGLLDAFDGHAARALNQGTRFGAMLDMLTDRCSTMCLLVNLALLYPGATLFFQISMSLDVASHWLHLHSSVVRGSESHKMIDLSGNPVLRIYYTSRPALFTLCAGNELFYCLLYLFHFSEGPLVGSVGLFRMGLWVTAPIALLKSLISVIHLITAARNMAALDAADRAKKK
Chain of Cyclin-dependent kinase 1 (Homo sapiens) (P06493 whole entry, looked up): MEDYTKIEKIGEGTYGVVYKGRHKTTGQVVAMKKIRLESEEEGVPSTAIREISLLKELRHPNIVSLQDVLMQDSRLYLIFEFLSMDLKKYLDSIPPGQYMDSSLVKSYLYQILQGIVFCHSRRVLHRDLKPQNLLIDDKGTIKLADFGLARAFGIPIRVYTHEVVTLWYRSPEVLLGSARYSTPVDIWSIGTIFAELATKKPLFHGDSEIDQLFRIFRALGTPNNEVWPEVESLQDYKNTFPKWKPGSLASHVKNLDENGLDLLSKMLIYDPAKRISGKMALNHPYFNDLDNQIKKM

Cc1ccc(C(=O)Nc2cccc(C(F)(F)F)c2)cc1Nc1nc(-c2cccnc2)nc2c1cnn2C
IC50 (Ephrin type-A receptor 5): 0.0028 µM
ED50 [1]: 0.177 µM
ED50 [2]: 0.0016 µM
ED50 (Homo sapiens [3]): 3.03 µM
ED50 [4]: 0.558 µM
ED50 [5]: 3.52 µM
ED50 [6]: 0.000993 µM
ED50 [7]: 3.8 µM
ED50 [8]: 0.0039 µM
ED50 [9]: 7.49 µM
ED50 [10]: 2.5 µM
ED50 [11]: 59.3 µM
ED50 [12]: 0.484 µM
ED50 (Emerin (Homo sapiens)): 45.5 µM
ED50 [13]: 0.00529 µM
ED50 [14]: 8.39 µM
ED50 [15]: 6.56 µM
ED50 (Homo sapiens [16]): 6.33 µM
ED50 [17]: 9.39 µM
ED50 [18]: 49.5 µM
ED50 [19]: 0.164 µM
ED50 [20]: 4.63 µM
ED50 [21]: 0.00367 µM
ED50 [22]: 0.0457 µM
ED50 [23]: 3.44 µM
ED50 [24]: 10.8 µM
ED50 [25]: 0.000302 µM
ED50 [26]: 0.46 µM
ED50 [27]: 3.76 µM
ED50 [28]: 1.36 µM
ED50 [29]: 3.03 µM
ED50 [30]: 11.7 µM
ED50 [31]: 0.49 µM
ED50 [32]: 93.7 µM
ED50 (Homo sapiens [33]): 49.3 µM
ED50 [34]: 13.9 µM
ED50 [35]: 0.0981 µM
ED50 [36]: 0.0167 µM
ED50 [37]: 2.24 µM
ED50 [38]: 1.67 µM
ED50 [39]: 58.3 µM
ED50 [40]: 0.0218 µM
ED50 [41]: 0.0434 µM
ED50 [42]: 0.0563 µM
ED50 [43]: 3.18 µM
ED50 [44]: 128 µM
ED50 [45]: 6.15 µM

Cc1ccc(C(=O)Nc2cccc(C(F)(F)F)c2)cc1Nc1nc(-c2cccnc2)nc2nn(C)cc12
IC50 (Ephrin type-A receptor 5): 0.208 µM
ED50 [1]: 0.0591 µM
ED50 [2]: 0.486 µM
ED50 (Homo sapiens [3]): 7.5 µM
ED50 [4]: 0.049 µM
ED50 [5]: 0.161 µM
ED50 [6]: 0.0581 µM
ED50 [7]: 7.91 µM
ED50 [8]: 69.8 µM
ED50 [9]: 0.051 µM
ED50 [10]: 0.0714 µM
ED50 [11]: 760 µM
ED50 [12]: 0.136 µM
ED50 (Emerin (Homo sapiens)): 0.501 µM
ED50 [13]: 1.92 µM
ED50 [14]: 0.0602 µM
ED50 [15]: 0.162 µM
ED50 (Homo sapiens [16]): 6.81 µM
ED50 [17]: 0.0174 µM
ED50 [18]: 25.8 µM
ED50 [19]: 7.59 µM
ED50 [20]: 0.265 µM
ED50 [21]: 0.0574 µM
ED50 [22]: 2500 µM
ED50 [23]: 0.0452 µM
ED50 [24]: 0.311 µM
ED50 [25]: 0.235 µM
ED50 [26]: 0.203 µM
ED50 [27]: 7.98 µM
ED50 [28]: 1.04 µM
ED50 [29]: 0.103 µM
ED50 [30]: 2.45 µM
ED50 [31]: 0.0468 µM
ED50 [32]: 0.553 µM
ED50 (Homo sapiens [33]): 0.631 µM
ED50 [34]: 0.0196 µM
ED50 [35]: 3.15 µM
ED50 [36]: 12.3 µM
ED50 [37]: 6.99 µM
ED50 [38]: 5.74 µM
ED50 [39]: 0.345 µM
ED50 [40]: 39.2 µM
ED50 [41]: 0.431 µM
ED50 [42]: 0.0585 µM
ED50 [43]: 732 µM
ED50 [44]: 0.0812 µM
ED50 [45]: 0.0477 µM
